Measurements taken from patent US12371454B2, “Cyclic peptide compound having Kras inhibitory action” (priority 2019, dated 2025).
Starred links: 1 amine or outer side, 2 acyl side, 3 side chain; linkers in the order of their positions; H or OH if unused. Positions of bridges follow the written chain, without caps; N, C: chain ends. Non-standard residues stand in square brackets, D forms with d. Residues, ends and D or L forms follow the SMILES beside them. *: point of attachment. NMeAbu(3,3-F2-piperidino) = CN[C@@H](CCN1CCCC(F)(F)C1)C(=O)O; hPhe(3-Cl-4-CF3) = N[C@@H](CCc1ccc(C(F)(F)F)c(Cl)c1)C(=O)O; NMePhe(4-CF3) = CN[C@@H](Cc1ccc(C(F)(F)F)cc1)C(=O)O; hPhe(4-CF3) = N[C@@H](CCc1ccc(C(F)(F)F)cc1)C(=O)O; Phe(2-OCF3) = N[C@@H](Cc1ccccc1OC(F)(F)F)C(=O)O; Phe(2-CF3) = N[C@@H](Cc1ccccc1C(F)(F)F)C(=O)O; NMeAbu(4,4,4-F3) = CN[C@@H](CC(F)(F)F)C(=O)O; NMePhe(4-Cl) = CN[C@@H](Cc1ccc(Cl)cc1)C(=O)O; NMePhe(4-Me) = CN[C@@H](Cc1ccc(C)cc1)C(=O)O; X62 = O=C([C@H](Cc1cc(I)ccc1Br)N[*:1])[*:2]; NMeAla(cPent) = CN[C@@H](CC1CCCC1)C(=O)O; Phe(3-I) = N[C@@H](Cc1cccc(I)c1)C(=O)O; X10 = CC(C)=CC[C@H](N[*:1])C(=O)[*:2]; NMeY = CN[C@@H](Cc1ccc(O)cc1)C(=O)O; NMeCha = CN[C@@H](CC1CCCCC1)C(=O)O; Hyp = O=C(O)[C@@H]1C[C@@H](O)CN1; NMeChg = CN[C@H](C(=O)O)C1CCCCC1; NMeF = CN[C@@H](Cc1ccccc1)C(=O)O; NMeI = CC[C@H](C)[C@H](NC)C(=O)O; NMeD = CN[C@@H](CC(=O)O)C(=O)O; NMeL = CN[C@@H](CC(C)C)C(=O)O; NMeNva = CCC[C@H](NC)C(=O)O; NMeV = CN[C@H](C(=O)O)C(C)C; d(β3hA) = C[C@@H](N)CC(=O)O; NMeAbu = CC[C@H](NC)C(=O)O; NMeA = CN[C@@H](C)C(=O)O; NMeAib = CNC(C)(C)C(=O)O; Nle = CCCC[C@H](N)C(=O)O; Piperidide = C1CCN(*)CC1; Pyrrolidide = C1CCN(*)C1; Ac5c = NC1(C(=O)O)CCCC1; Aze = O=C(O)[C@@H]1CCN1; X1 = FC1(F)CN(*)CC1(F)F; Ac3c = NC1(C(=O)O)CC1; Isopentyl = CC(C)CC*; NPrGly = CCCNCC(=O)O; Sar = CNCC(=O)O

Biological target: T1, Kras and SOS1 (biotin-tagged human Kras loaded with GDP, His-tagged human SOS1) (Homo sapiens, UniProt P01116, G12D)
T1 construct: made in house; host or cells: E. coli (stated for Kras only)
T1 sequence (P01116 1-188 isoform P01116-2 G12D): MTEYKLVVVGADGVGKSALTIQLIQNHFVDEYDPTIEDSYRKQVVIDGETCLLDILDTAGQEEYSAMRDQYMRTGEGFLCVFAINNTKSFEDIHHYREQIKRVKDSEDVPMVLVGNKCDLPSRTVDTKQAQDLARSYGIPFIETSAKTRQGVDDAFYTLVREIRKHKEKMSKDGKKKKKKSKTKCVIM
Test: Protein-protein interaction inhibition between Kras and SOS1 (KrasGl2D-SOS PPI) using AlphaScreen
Format: binding
Details: AlphaScreen; biotin-tagged human Kras loaded with GDP, His-tagged human SOS1; read-out: KRAS G12D-SOS PPI IC50
In short: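 Donor beads (nickel) hold His-SOS1; acceptor beads (streptavidin) hold biotin-Kras bound to GDP. Signal measured at 520-620 nm following 680 nm excitation.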

**Q.** How did the IC50 turn out when `CC[C@H](C)[C@@H]1NC(=O)[C@H](CC(C)C)N(C)C(=O)C[C@@H](C)NC(=O)[C@H](C(C)C)N(C)C(=O)C2(CC2)NC(=O)[C@@H]2CCCN2C(=O)[C@H](CCc2ccc(C(F)(F)F)c(Cl)c2)NC(=O)CN(C)C(=O)[C@H](CC2CCCCC2)N(C)C(=O)CN(C)C(=O)CN(C)C1=O` [Compound 1111] (cyclo([Ac3c][NMeV][d(β3hA)][NMeL]I[Sar][Sar][NMeCha][Sar][hPhe(3-Cl-4-CF3)]P)) was run?
**A.** 41 nM

**Q.** For `CCC[C@H]1C(=O)NC2(CCCC2)C(=O)N(C)[C@@H](C2CCCCC2)C(=O)N(C)[C@H](C(=O)N2CCCCC2)CC(=O)N(C)[C@@H](CC(C)C)C(=O)N[C@@H]([C@@H](C)CC)C(=O)N(C)[C@@H](C)C(=O)N2CC[C@H]2C(=O)N(C)[C@@H](CC2CCCCC2)C(=O)N(C)CC(=O)N[C@@H](CCc2ccc(C(F)(F)F)c(Cl)c2)C(=O)N1C` [Compound 1113] ([NMeL]I[NMeA][Aze][NMeCha][Sar][hPhe(3-Cl-4-CF3)][NMeNva][Ac5c][NMeChg][NMeD]-Piperidide; lactam N-11), which IC50 is on record?
**A.** 410 nM

**Q.** `CC[C@H](C)[C@@H]1NC(=O)[C@H](C)N(C)C(=O)C[C@@H](C(=O)N2CCCC2)NC(=O)[C@H](CC(C)C)N(C)C(=O)[C@H](Cc2ccccc2)N(C)C(=O)[C@H](COCCC(C)C)NC(=O)[C@H](CCc2ccc(C(F)(F)F)cc2)NC(=O)CN(C)C(=O)[C@H](Cc2ccc(Cl)cc2)N(C)C(=O)CN(C)C(=O)CN(C)C1=O` [Compound 1119] ([NMeA]I[Sar][Sar][NMePhe(4-Cl)][Sar][hPhe(4-CF3)]S(Isopentyl)[NMeF][NMeL]D-Pyrrolidide; lactam N-11) was tested. Which IC50 did it give?
**A.** 180 nM

**Q.** `CC[C@H](C)[C@@H]1NC(=O)[C@H](C)N(C)C(=O)C[C@@H](C(=O)N2CCCCC2)N(C)C(=O)[C@H](C(C)C)N(C)C(=O)C2(CCCC2)NC(=O)[C@@H]2CCCN2C(=O)[C@H](CCc2ccc(C(F)(F)F)c(Cl)c2)NC(=O)CN(C)C(=O)[C@H](CC2CCCCC2)N(C)C(=O)[C@@H]2CCCN2C(=O)CN(C)C1=O` [Compound 1121] ([NMeA]I[Sar]P[NMeCha][Sar][hPhe(3-Cl-4-CF3)]P[Ac5c][NMeV][NMeD]-Piperidide; lactam N-11) was tested. Which IC50 did it give?
**A.** 1.4 nM

**Q.** Which IC50 does the source give for `CC[C@H](C)[C@@H]1NC(=O)[C@H](CC(C)C)N(C)C(=O)C[C@@H](C(=O)N2CCCCC2)N(C)C(=O)[C@H](CC(C)C)NC(=O)C(C)(C)N(C)C(=O)[C@H](Cc2ccccc2C(F)(F)F)NC(=O)[C@H](Cc2cccc(I)c2)NC(=O)CN(C)C(=O)[C@H](Cc2ccc(C)cc2)N(C)C(=O)CN(C)C(=O)CN(C)C1=O` [Compound 1127] ([NMeL]I[Sar][Sar][NMePhe(4-Me)][Sar][Phe(3-I)][Phe(2-CF3)][NMeAib]L[NMeD]-Piperidide; lactam N-11) here?
**A.** 260 nM

**Q.** Which IC50 does the source give for `CC[C@H](C)[C@@H]1NC(=O)[C@H](CC(C)C)N(C)C(=O)C[C@@H](C(=O)N2CCCCC2)N(C)C(=O)[C@H](CC(C)C)NC(=O)C(C)(C)N(C)C(=O)[C@H](Cc2ccccc2OC(F)(F)F)NC(=O)[C@H](Cc2cccc(I)c2)NC(=O)CN(C)C(=O)[C@H](Cc2ccc(C)cc2)N(C)C(=O)[C@@H]2CCN2C(=O)[C@H](C)N(C)C1=O` [Compound 1129] ([NMeL]I[NMeA][Aze][NMePhe(4-Me)][Sar][Phe(3-I)][Phe(2-OCF3)][NMeAib]L[NMeD]-Piperidide; lactam N-11) here?
**A.** 150 nM

**Q.** `CCCN1CC(=O)N(C)[C@@H]([C@@H](C)CC)C(=O)N(C)[C@H](C(=O)N(C)C)CC(=O)N(C)[C@@H](CC(C)C)C(=O)N[C@@H]([C@@H](C)CC)C(=O)N(C)[C@@H](C)C(=O)N2CC[C@H]2C(=O)N(C)[C@@H](Cc2ccc(C)cc2)C(=O)N(C)CC(=O)N[C@@H](CCc2ccc(C(F)(F)F)c(Cl)c2)C(=O)N2CCC[C@H]2C1=O` [Compound 1131] ([NMeL]I[NMeA][Aze][NMePhe(4-Me)][Sar][hPhe(3-Cl-4-CF3)]P[NPrGly][NMeI][NMeD]-NMe2; lactam N-11) was tested. Which IC50 did it give?
**A.** 13 nM

**Q.** With `CC(C)=CC[C@@H]1NC(=O)[C@H](CC(C)C)N(C)C(=O)C[C@@H](C(=O)N2CCCCC2)N(C)C(=O)[C@H](C2CCCCC2)N(C)C(=O)C2(CCCC2)NC(=O)[C@@H]2CCCN2C(=O)[C@H](CCc2ccc(C(F)(F)F)c(Cl)c2)NC(=O)CN(C)C(=O)[C@H](CC2CCCCC2)N(C)C(=O)CN(C)C(=O)CN(C)C1=O` [Compound 1134] ([NMeL][X10][Sar][Sar][NMeCha][Sar][hPhe(3-Cl-4-CF3)]P[Ac5c][NMeChg][NMeD]-Piperidide; lactam N-11) as the compound, how does the IC50 read?
**A.** 6 nM

**Q.** With `CC[C@H](C)[C@@H]1NC(=O)[C@H](CC(C)C)N(C)C(=O)C[C@@H](C(=O)N(C)C)N(C)C(=O)[C@H]([C@@H](C)CC)N(C)C(=O)[C@H](C)NC(=O)[C@H](CCN2CCCC(F)(F)C2)N(C)C(=O)[C@H](CCc2ccc(C(F)(F)F)c(Cl)c2)NC(=O)CN(C)C(=O)[C@H](Cc2ccc(C)cc2)N(C)C(=O)[C@@H]2CCN2C(=O)[C@H](C)N(C)C1=O` [Compound 1135] ([NMeL]I[NMeA][Aze][NMePhe(4-Me)][Sar][hPhe(3-Cl-4-CF3)][NMeAbu(3,3-F2-piperidino)]A[NMeI][NMeD]-NMe2; lactam N-11) as the compound, how does the IC50 read?
**A.** 5.8 nM

**Q.** Which IC50 does the source give for `CC[C@H](C)[C@@H]1NC(=O)[C@H](CC(C)C)N(C)C(=O)C[C@@H](C(=O)N2CC(F)(F)C(F)(F)C2)N(C)C(=O)[C@H](C(C)C)N(C)C(=O)C2(CCCC2)NC(=O)[C@@H]2CCCN2C(=O)[C@H](CCc2ccc(C(F)(F)F)c(Cl)c2)NC(=O)CN(C)C(=O)[C@H](CC2CCCCC2)N(C)C(=O)[C@@H]2CCN2C(=O)[C@H](C)N(C)C1=O` [Compound 1136] ([NMeL]I[NMeA][Aze][NMeCha][Sar][hPhe(3-Cl-4-CF3)]P[Ac5c][NMeV][NMeD]-X1; lactam N-11) here?
**A.** 70 nM

**Q.** With `CCO[C@@H]1C[C@H]2C(=O)NC3(CCCC3)C(=O)N(C)[C@@H](C3CCCCC3)C(=O)N(C)[C@H](C(=O)N3CCCC3)CC(=O)N(C)[C@@H](CC(F)(F)F)C(=O)N[C@@H]([C@@H](C)CC)C(=O)N(C)CC(=O)N(C)CC(=O)N(C)[C@@H](Cc3ccc(C(F)(F)F)cc3)C(=O)N(C)CC(=O)N[C@@H](CCc3ccc(C(F)(F)F)c(Cl)c3)C(=O)N2C1` [Compound 1139] ([NMeAbu(4,4,4-F3)]I[Sar][Sar][NMePhe(4-CF3)][Sar][hPhe(3-Cl-4-CF3)][Hyp](Et)[Ac5c][NMeChg][NMeD]-Pyrrolidide; lactam N-11) as the compound, how does the IC50 read?
**A.** 0.59 nM

**Q.** How did the IC50 turn out when `CC[C@H](C)[C@@H]1NC(=O)[C@H](CC2CCCC2)N(C)C(=O)C[C@@H](C(=O)N(C)C)N(C)C(=O)[C@H]([C@@H](C)CC)N(C)C(=O)C2(CCCC2)NC(=O)[C@@H]2CCCN2C(=O)[C@H](CCc2ccc(C(F)(F)F)c(Cl)c2)NC(=O)CN(C)C(=O)[C@H](Cc2ccc(C)cc2)N(C)C(=O)[C@@H]2CCN2C(=O)[C@H](C)NC1=O` [Compound 1141] ([NMeAla(cPent)]IA[Aze][NMePhe(4-Me)][Sar][hPhe(3-Cl-4-CF3)]P[Ac5c][NMeI][NMeD]-NMe2; lactam N-11) was run?
**A.** 0.97 nM

**Q.** Which IC50 does the source give for `CCCC[C@@H]1NC(=O)[C@H](Cc2cc(I)ccc2Br)NC(=O)CN(C)C(=O)[C@H](Cc2ccc(OC)cc2)N(C)C(=O)[C@@H]2CCN2C(=O)[C@H](C)N(C)C(=O)[C@H]([C@@H](C)CC)NC(=O)[C@H](CC)N(C)C(=O)C[C@@H](C(=O)N2CCCCC2)N(C)C(=O)[C@H](CC(C)C)NC(=O)C(C)(C)N(C)C1=O` [Compound 1155] ([NMeAbu]I[NMeA][Aze][NMeY](Me)[Sar][X62][Nle][NMeAib]L[NMeD]-Piperidide; lactam N-11) here?
**A.** 170 nM
